System: Botrytis cinerea
Experiment: Test for controlling effect against cucumber gray mold
Type: in vivo, Botrytis cinerea on cucumber
Settings: 500 ppm wettable powder spray, 5 ml per pot; cucumber first leaf stage; lesion areas three days after inoculation

SMILES	Inhibition rate (%) at concentration of 500 ppm Cucumber gray mold
CCCCOC(c1cccc(-n2nc(C(N)=O)nc2C2CCCCC2)c1)C(C)C (centres unmarked) [Compound 5, 1-[3-[(1-butoxy-2-methyl)propyl]phenyl]-5-cyclohexyl-1H-1,2,4-triazole-3-carboxamide]	82%
CCCCOC(c1cccc(-n2nc(C(N)=O)nc2Cc2ccccc2)c1)C(C)C (centres unmarked) [Compound 6, 1-[3-[(1-butoxy-2-methyl)propyl]phenyl]-5-(phenylmethyl)-1H-1,2,4-triazole-3-carboxamide]	80%

From patent EP0562480B1, “1-phenyl-5-substituted-1H-1, 2,4-triazole-3-carboxamide derivates, process for preparation of the same, and fungicidal composition comprising the same” (KUREHA CHEMICAL INDUSTRY CO., LTD., priority 1992, dated 1993)
